Earlier results as cited in patent US20240325452A1, “METHODS AND COMPOSITIONS FOR DREADD-ACTIVATABLE CELLS FOR NEURAL REPAIR” (Drexel University, priority 2023, published 2024).
One block for each compound: values may come before it.

Assays:
hM3Dq = hM3Dq (Homo sapiens, UniProt P20309, A239G/Y149C); details: hM3 with two point mutations
[1] = it has been reported
hM3Dq and hM4Di DREADDs = details: marketed ligands, active in vivo

Chain of hM3Dq (P20309 whole entry Y149C/A239G): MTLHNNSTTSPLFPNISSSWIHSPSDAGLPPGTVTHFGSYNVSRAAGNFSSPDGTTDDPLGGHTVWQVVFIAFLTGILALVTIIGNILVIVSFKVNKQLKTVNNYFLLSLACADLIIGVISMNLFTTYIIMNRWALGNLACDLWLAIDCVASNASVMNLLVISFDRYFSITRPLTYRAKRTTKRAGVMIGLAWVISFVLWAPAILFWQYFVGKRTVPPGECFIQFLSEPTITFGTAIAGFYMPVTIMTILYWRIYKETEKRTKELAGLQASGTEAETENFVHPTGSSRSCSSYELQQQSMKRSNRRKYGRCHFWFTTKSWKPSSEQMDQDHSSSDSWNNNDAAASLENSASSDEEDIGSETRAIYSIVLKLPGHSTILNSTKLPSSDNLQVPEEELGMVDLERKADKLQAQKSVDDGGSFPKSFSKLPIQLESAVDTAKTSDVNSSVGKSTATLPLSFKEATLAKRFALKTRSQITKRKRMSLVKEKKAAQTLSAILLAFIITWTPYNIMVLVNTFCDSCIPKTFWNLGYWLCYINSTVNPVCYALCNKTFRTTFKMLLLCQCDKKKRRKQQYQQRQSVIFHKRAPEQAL

potency at mutant receptor (hM3Dq): nanomolar potency
Compound: C[N+]1([O-])CCN(C2=Nc3cc(Cl)ccc3Nc3ccccc32)CC1 [CNO, clozapine N-oxide]

bioavailability, pharmacokinetic properties and brain penetrability [1]: excellent
Compound: c1ccc2c(c1)N=C(N1CCNCC1)c1ccccc1N2 [Compound 21]
reverse metabolism to clozapine [1]: does not undergo reverse metabolism to clozapine

Compound: CCN1CCN(C2=Nc3cc(Cl)ccc3Nc3c(F)cccc32)CC1 [JHU37160]
potency and affinity (hM3Dq and hM4Di DREADDs): high potency and affinity
